In PubChem BioAssay (NCI) one finds TGI data, which are given here for 13 molecules.

Among the test systems are HCC-2998 colon; SF-268 CNS; TK-10 renal; HT29 colon; MDA-MB-435; HCT-116 colon; UACC-257 melanoma; BT-549 breast; HOP-92 NSCLC; SW-620 colon.
Holding throughout (assay): NCI anticancer screen, dose series, 48 h

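Values below derive from 48-hour exposures of cells grown in 96-well plates, with endpoints linearly interpolated between the two concentrations bracketing the appropriate inhibition level. TGI is the concentration that stops growth completely.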

With `COC(=O)c1c(C)cccc1C1CN=NC12Cc1cc(C)cc(C)c1C2=O` (stereo not given), the TGI is 68 µM with HCC-2998 colon; > 100 µM in the assay on SF-268 CNS; 98.3 µM in the assay on TK-10 renal; > 100 µM in the assay with HT29 colon; > 100 µM in the assay with MDA-MB-435; > 100 µM in the assay on HCT-116 colon. In addition, the TGI in the assay on UACC-257 melanoma was 80.3 µM; in the assay with BT-549 breast, > 100 µM; with HOP-92 NSCLC, 64.2 µM; in the assay on SW-620 colon it was > 100 µM.
On to `Cc1ccc(N=Nc2c(O)ccc3cc(S(=O)(=O)O)ccc23)cc1`, for which the TGI in the assay with HCC-2998 colon, in the assay with SF-268 CNS, in the assay with TK-10 renal, with HT29 colon, in the assay on MDA-MB-435 and in the assay on HCT-116 colon was > 100 µM in each case. Also, the TGI in the assay on UACC-257 melanoma, with BT-549 breast, in the assay with HOP-92 NSCLC and in the assay on SW-620 colon was > 100 µM throughout.
As to `O=C(C/C(=N/O)C(F)(F)F)c1cccs1`, the TGI in the assay with HCC-2998 colon, with SF-268 CNS, in the assay on TK-10 renal, in the assay on HT29 colon, in the assay on MDA-MB-435 and with HCT-116 colon was > 100 µM in each case. In addition, the TGI in the assay with UACC-257 melanoma, with BT-549 breast, in the assay with HOP-92 NSCLC and in the assay with SW-620 colon was > 100 µM throughout.
On to `N/C(=N\Nc1ccc(Cl)cc1)c1cnccn1`, for which the TGI in the assay with HCC-2998 colon is 79.1 µM; in the assay with SF-268 CNS, > 100 µM; in the assay with TK-10 renal, > 100 µM; in the assay on HT29 colon, > 100 µM; in the assay with MDA-MB-435, > 100 µM; in the assay on HCT-116 colon, > 100 µM. Besides, the TGI in the assay with UACC-257 melanoma, in the assay on BT-549 breast, in the assay on HOP-92 NSCLC and with SW-620 colon was > 100 µM each time.
As for `O=C(O)/C(=C\c1ccc(O)cc1)c1cccc2ccccc12`, the TGI in the assay with HCC-2998 colon, with SF-268 CNS, in the assay on TK-10 renal, in the assay on HT29 colon, in the assay on MDA-MB-435 and with HCT-116 colon was > 100 µM in each case. For the same molecule, the TGI in the assay on UACC-257 melanoma, in the assay with BT-549 breast, with HOP-92 NSCLC and with SW-620 colon was > 100 µM each time.
With `Nn1c(=O)[nH]c2ncn(Cc3ccccc3)c2c1=O`, the TGI with HCC-2998 colon, in the assay with SF-268 CNS, with TK-10 renal, with HT29 colon, in the assay on MDA-MB-435 and in the assay with HCT-116 colon was > 100 µM each time. For the same molecule, the TGI in the assay with UACC-257 melanoma, with BT-549 breast, with HOP-92 NSCLC and in the assay on SW-620 colon was > 100 µM each time.
Regarding `O=C1CC(=O)NC(=NN2C(=O)CSC2C(=O)c2ccco2)N1` (stereo not given), the TGI in the assay with HCC-2998 colon, with SF-268 CNS, in the assay on TK-10 renal, with HT29 colon, in the assay on MDA-MB-435 and in the assay with HCT-116 colon was > 100 µM each time. Besides, the TGI in the assay with UACC-257 melanoma, in the assay on BT-549 breast, in the assay on HOP-92 NSCLC and with SW-620 colon was > 100 µM in each case.
As to `S=c1nc(N/N=C/c2cccs2)c2cn[nH]c2[nH]1`, the TGI is 27.8 µM with HCC-2998 colon; > 100 µM in the assay on SF-268 CNS; 49.3 µM in the assay with TK-10 renal; > 100 µM in the assay with HT29 colon; 51.9 µM in the assay with MDA-MB-435; > 100 µM in the assay with HCT-116 colon. Besides, the TGI in the assay on UACC-257 melanoma, with BT-549 breast, in the assay with HOP-92 NSCLC and in the assay with SW-620 colon was > 100 µM each time.
Regarding `Cc1cc2c(cc1C)C(=O)C1(C2)Cc2cc3c(cc2C1=O)CCC3` (stereo not given), the TGI in the assay on HCC-2998 colon, in the assay on SF-268 CNS, with TK-10 renal, in the assay with HT29 colon, in the assay with MDA-MB-435 and in the assay on HCT-116 colon was > 100 µM in each case. The TGI in the assay with UACC-257 melanoma, in the assay with BT-549 breast, in the assay on HOP-92 NSCLC and with SW-620 colon was > 100 µM throughout.
Turning to `O=[N+]([O-])c1cc(F)ccc1S(=O)(=O)c1ccccc1`, the TGI in the assay with HCC-2998 colon, with SF-268 CNS, with TK-10 renal, with HT29 colon, in the assay with MDA-MB-435 and in the assay with HCT-116 colon was > 10 µM in each case. In addition, the TGI with UACC-257 melanoma, in the assay with BT-549 breast, in the assay with HOP-92 NSCLC and in the assay on SW-620 colon was > 10 µM in each case.
On to `COc1ccc(-c2ncn(C[Si](C)(C)C)c2-c2ccc(OC)cc2)cc1`, for which the TGI came out at 7.34 µM in the assay with HCC-2998 colon; 28.7 µM with SF-268 CNS; 20 µM with TK-10 renal; 10.8 µM with HT29 colon; 13 µM in the assay on MDA-MB-435; 13 µM in the assay with HCT-116 colon. Besides, the TGI in the assay on UACC-257 melanoma came to 16.7 µM; in the assay with BT-549 breast it was 72.3 µM; with HOP-92 NSCLC, 17.5 µM; in the assay with SW-620 colon it was 17 µM.
Regarding `COc1ccc2c(c1)NC1(CCN(CCCC(=O)c3ccc(F)cc3)CC1)N=N2`, the TGI with HCC-2998 colon was 28.2 µM; with SF-268 CNS, > 100 µM; in the assay on TK-10 renal, 62.2 µM; in the assay with HT29 colon it was 69.4 µM; in the assay with MDA-MB-435 it was 31.4 µM; in the assay with HCT-116 colon, 36 µM. For the same molecule, the TGI is 46.1 µM in the assay on UACC-257 melanoma, 74.7 µM in the assay with BT-549 breast, > 100 µM with HOP-92 NSCLC and 57.9 µM in the assay on SW-620 colon.
Consider `CCCCc1ccc(Nc2nc(Cl)c3ccn(C4CC(Oc5ccc(C)cc5)C(COc5ccc(C)cc5)O4)c3n2)cc1` (stereo not given), for which the TGI was > 46.4 µM in the assay on HCC-2998 colon; > 100 µM in the assay on SF-268 CNS; 43.4 µM with TK-10 renal; > 46.4 µM in the assay on HT29 colon; > 46.4 µM with MDA-MB-435; > 46.4 µM in the assay on HCT-116 colon. Further, the TGI with UACC-257 melanoma was 31.5 µM; in the assay on BT-549 breast it was 17.3 µM; in the assay on HOP-92 NSCLC, > 46.4 µM; in the assay with SW-620 colon, > 46.4 µM.
